Measurements taken from patent publication US20250360130A1, “METHODS OF TREATING INDOLENT SYSTEMIC MASTOCYTOSIS” (Telios Pharma Inc., priority 2024, published 2025).

Columns and labels:
human mast cells = test: ISM-like mast cell chemotaxis towards conditioned media (Transwell); type: cell-based; conditions: conditioned media from ISM-like mast cells treated two hours
Method: Human mast cells were differentiated from bone marrow CD34+ cells from four healthy donors as set forth in Example 4. Cells were used to produce conditioned media in ISM-like conditions. Conditioned media was the supernatant collected from mast cells cultured with stem cell factor (100 ng/ml), sensitized with NP-IgE (0.1 μg/mL) for 18 hours, treated with Compound 128 for two hours, and stimulated with NP-BSA (antigen; 0.1 μg/mL) for four hours. Migration of mast cells in the top chamber on Transwell […] inserts (Corning) towards the antigen-stimulated conditioned media in the bottom chamber was quantified after four hours using the CellTiter-Glo™ Luminescent Cell Viability Assay Kit (Promega). The amount of luminescence is correlated with live cell numbers. Fold change over the non-activated control was calculated.

basophils = test: Inhibition of basophil activation (BAT, CD63) in ISM patients; type: in vivo, human
Method: The BAT was conducted as set forth in Santos (2021) Allergy, 76:2420-2432. Blood from six healthy donors was drawn and Compound 128 was added at various concentrations (10 μM, 3.16 μM, 1 μM, 0.3 μM, 0.1 μM, 0.03 μM, or 0 μM). Blood samples were gently rocked at room temperature for 2 hours, 24 hours, or 48 hours. The BAT assay using the Flow Cast Basophil Activation Kit (Buhlmann Diagnostics; Catalog #B-CCR-STCON) was then conducted following manufacturer instructions by (1) stimulating the blood with anti-FcεR stimulation control in stimulation buffer with IL-3 and staining cells for CCR3 and CD63 for 15 minutes at 37° C., (2) lysing red blood cells and fixing cells with Lysing Reagent at room temperature for 10 minutes, (3) washing cells with Wash Buffer, and (4) acquiring data on a flow cytometer. Activated basophils were defined as CCR3+, low side scatter and CD63+. Percent of activated basophils was calculated as number of activated basophils over the total number of basophils. A four-parameter logistic regression was applied to determine the EC50 and EC90. […]
The BAT assay measuring CD63 used the Flow Cast Basophil Activation Kit method and percent activated basophils were calculated as described in Example 1. Percent inhibition of CD63 activation was calculated as (100−(Sample condition−Unstimulated DMSO control)/(Stimulated DMSO control−Unstimulated DMSO control)×100).

BTK [1] = molecular target: T1, BTK (Homo sapiens, UniProt Q06187); test: BTK phosphorylation in mast cells (FIG. 19); type: cell-based; parameters: endogenous in cells; conditions: correlating with calcium signaling, CD63, CD203c, histamine release
BTK [2] = molecular target: T1, BTK; test: MRGPRX2-induced BTK phosphorylation in ISM-like mast cells; type: cell-based; parameters: Human mast cells were differentiated from bone marrow CD34+ cells from six healthy donors; endogenous in cells; host or cells: human mast cells differentiated from bone marrow CD34+ cells of healthy donors, cultured with SCF; conditions: 0.1 μM, C48/80 stimulation
Method: Human mast cells were differentiated from bone marrow CD34+ cells from four healthy donors and were cultured in the presence of SCF (100 ng/mL) to mimic mast cells in ISM and treated with Compound 128 for two hours prior to stimulation. Mas-related G protein-coupled receptor (MRGPRX2) agonists, Compound 48/80 (C48/80; a product of N-methyl-p-methoxyphenethylamine with formaldehyde) or Substance P (SP) were used to activate the MRGPRX2 pathway. For pBTK test, cells were stimulated with C48/80 (10 μg/mL) for ten minutes at 37° C. and cells were stained. The median fluorescence intensity of phosphorylated BTK was measured. The fold change over unstimulated control for pBTK was calculated. For cytokine test, cells were stimulated with C48/80 (10 μg/mL) or SP (30 μM) for four hours at 37° C. Supernatant was collected and cytokine levels were measured using the BD Cytometric Bead Array (CBA) human soluble protein master buffer kit (Becton Dickinson) and BD CBA human soluble protein flex sets for IL-8, MCP-1, GM-CSF and IL-13 (Becton Dickinson). Cytokine levels were measured and normalized to percent of control, with 0% representing the level of the unstimulated control.

T1 sequence (Q06187 whole entry): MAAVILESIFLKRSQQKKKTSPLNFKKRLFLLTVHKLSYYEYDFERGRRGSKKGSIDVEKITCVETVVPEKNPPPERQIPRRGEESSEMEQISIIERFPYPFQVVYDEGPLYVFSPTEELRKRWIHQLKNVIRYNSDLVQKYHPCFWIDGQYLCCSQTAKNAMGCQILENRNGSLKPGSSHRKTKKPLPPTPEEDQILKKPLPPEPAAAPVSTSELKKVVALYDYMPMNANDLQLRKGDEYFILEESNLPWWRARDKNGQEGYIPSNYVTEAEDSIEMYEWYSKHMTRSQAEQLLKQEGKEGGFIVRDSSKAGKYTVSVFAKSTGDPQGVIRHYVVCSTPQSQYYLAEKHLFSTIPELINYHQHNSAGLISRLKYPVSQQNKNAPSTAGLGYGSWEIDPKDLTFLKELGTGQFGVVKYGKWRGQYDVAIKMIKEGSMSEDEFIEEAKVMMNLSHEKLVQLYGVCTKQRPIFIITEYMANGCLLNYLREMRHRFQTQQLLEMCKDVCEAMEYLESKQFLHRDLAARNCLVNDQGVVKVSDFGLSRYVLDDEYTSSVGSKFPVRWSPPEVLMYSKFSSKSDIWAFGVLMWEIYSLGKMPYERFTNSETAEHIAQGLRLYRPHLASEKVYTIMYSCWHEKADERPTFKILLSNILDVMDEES

inhibition of BTK phosphorylation in mast cells (BTK [1]): high potency
MRGPRX2-induced BTK phosphorylation (BTK [2]): inhibited
Compound: C=CC(=O)N1CCC(F)(CNc2ncnc(N)c2-c2ccc(Oc3ccccc3)cc2)CC1 [Compound 128, 1-(4-(((6-amino-5-(4-phenoxyphenyl)pyrimidin-4-yl)amino)methyl)-4-fluoropiperidin-1-yl)prop-2-en-1-one]
chemoattractant activity of mast cells (chemotaxis, fold change over non-activated control) (human mast cells): inhibited
inhibition of basophil activation (basophils; 100 mg or 150 mg BID): effective in inhibiting basophil activation
percent inhibition of CD63 activation of basophils, dose dependence (basophils; 50, 75, 100 or 150 mg BID versus placebo): greater inhibition of basophil activation is achieved in ISM patients with greater dosing
